US20060211651A1, “Persulfated oligosaccharide acting on selectins and chemokine” (Taisho Pharmaceutical Co., Ltd., priority 2002, published 2006)

Legend:
[1] = system: secondary lymphoid tissue chemokine; assay: ELISA, biotinylated versican binding to SLC in presence of glycosaminoglycan; conditions: 100 μg/ml glycosaminoglycan; FIG. 5
Experimental: (§1) A well of a 96 well flat bottom microtiter plate was coated with BSA (5 μg/ml), anti-versican monoclonal antibody 2B1 (5 μg/ml), CD44-Ig (7 μg/ml), L-selectin-Ig (3 μg/ml), P-selectin-Ig (3 μg/ml) or chemokine (1 μg/ml), and then blocked with a phosphate buffered physiological saline containing 3% by weight of BSA. As the above chemokine, secondary lymphoid tissue chemokine, γ-interferon inducible protein-10, platelet factor 4, stromal cell-derived factor-1β [manufactured by Pepro Tech] and stromal cell-derived factor-1α [manufactured by Pepro Tech] were used.
(§2) Thereafter, the plate was washed with the buffer A, and enzyme-linked immunosorbent assay was performed in the same manner as that of the previous report [Kawashima, H. et al., J. Biol. Chem., 275, 35448-35456 (2000)]. Binding was determined by measuring absorbance at 620 nm using alkaline phosphatase-conjugated streptavidin and Blue Phos™ substrate. In FIG. 5, expression of an abscissa axis is the same as that of FIG. 4.

[2] = molecular target: T1, stromal cell-derived factor-1β (Homo sapiens, UniProt P48061); assay: BIAcore surface plasmon resonance, immobilized glycosaminoglycan vs SDF-1β; assay type: binding; conditions: for Kd / koff / kon: GAG immobilized, 25° C.
T1 construct: purchased Pepro Tech
T1 sequence (P48061 22-93): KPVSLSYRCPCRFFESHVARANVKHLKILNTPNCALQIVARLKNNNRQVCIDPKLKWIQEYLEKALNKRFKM
Experimental: (§3) Affinity kinetics of the interaction between various CS/DS chains and each of L-selectin, P-selectin, CD44 and chemokine were examined by surface plasmon resonance using BIAcore™ biosensor [manufactured by BIAcore AB].
(§4) All experiments were performed at 25° C. At stages of washing and dissociation, buffer C (20 mM HEPES-NaOH, 0.15M NaCl, 1 mM CaCl2, 1 mM MgCl2, pH6.8) was used as a running buffer.
(§5) First, about 1.8 to 2.0 kiloresonance unit (1 kiloresonance unit=1 ng/mm^2) of streptavidin were covalently immobilized onto B1 sensor chip via a primary amine group using an amine coupling kit [manufactured by Amercham-Bioscience] according to the instruction provided by the manufacturer. The remaining activated groups were blocked with 150 μl of 1M ethanolamine-HCl (pH8.5). Then, each glycosaminoglycan which had been biotinylated at a reducing end was injected to a sensor tip surface by using EZ-link™ biotin-LC-hydrazide [manufactured by Pierce] so as to obtain about 150 resonance unit of an immobilization level, according to the method of Sadir et al. [J. Biol. Chem., 276, 8288-8296 (2001); all teachings of which are hereby incorporated by reference].
(§6) Binding assay was performed by injecting continuously each of various concentrations of secondary lymphoid tissue chemokine, γ-interferon inducible protein-10, stromal cell-derived factor-1β, monomeric L-selectin [manufactured by Genzyme-Techne], monomeric P-selectin [manufactured by Genzyme-Techne] and monomeric CD44, to a glycosaminoglycan-coupled sensor tip at a flow rate of 30 μl/min for 0 to 90 seconds, and then injecting a running buffer thereto. A response in resonance unit was recorded as a function of a time.
(§7) A sensor tip surface was regenerated with 300 μl of 1 M NaCl when chemokine or CD44 was used, or regenerated with 300 μl of 1 M NaCl, and additional 100 μl of 50 mM EDTA (pH8.0), when selectin was used. As a result of regeneration of a sensor tip surface, a remarkable change in a baseline was not observed.
(§8) An affinity kinetic parameter was determined by BIAevaluation 3.0 software [manufactured by Pharmacia Biosensor] using a single site binding model. […] In FIG. 6 and Table 3, SLC denotes secondary lymphoid tissue chemokin, IP-10 denotes γ-interferon inducible protein-10, SDF-1β denotes stromal cell-derived factor-1β, CS E denotes chondroitin sulfate E, and CS A denotes chondroitin sulfate A. In addition, in Table 3, Kd value for the interaction between monomeric CD44 and chondroitin sulfate E is a value calculated from a binding amount at equilibrium, and Kd value of the interaction between CD44 and hyaluronic acid is a value calculated using CD44-Ig.

[3] = system: P-selectin-Ig; assay: ELISA, biotinylated versican binding to P-selectin-Ig in presence of glycosaminoglycan; conditions: 100 μg/ml glycosaminoglycan; FIG. 5
Experimental: as §1, §2

[4] = molecular target: T2, monomeric L-selectin (Homo sapiens, UniProt P14151); assay: BIAcore surface plasmon resonance, immobilized glycosaminoglycan vs monomeric L-selectin; assay type: binding; conditions: for Kd / koff / kon: L-selectin, GAG immobilized, 25° C.; for interaction with immobilized glycosaminoglycan (sensorgram): monomeric L-selectin
T2 construct: purchased Genzyme-Techne
T2 sequence (P14151 39-332 limits assumed): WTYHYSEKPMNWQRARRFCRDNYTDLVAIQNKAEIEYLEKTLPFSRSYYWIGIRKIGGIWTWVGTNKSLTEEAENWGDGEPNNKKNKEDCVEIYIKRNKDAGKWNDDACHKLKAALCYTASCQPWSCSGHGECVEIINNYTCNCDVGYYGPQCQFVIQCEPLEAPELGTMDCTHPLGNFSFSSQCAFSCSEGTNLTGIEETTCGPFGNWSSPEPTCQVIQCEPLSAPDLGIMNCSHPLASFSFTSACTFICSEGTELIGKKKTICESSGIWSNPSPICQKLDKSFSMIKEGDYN
Experimental: as §3, §4, §5, §6, §7, §8

[5] = system: secondary lymphoid tissue chemokine; assay: Ca2+ mobilization in L1.2/CCR7 cells stimulated with SLC; assay type: cell-based; conditions: glycosaminoglycan 100 μg/ml; L1.2/CCR7 cells loaded with Fura-2; FIG. 8
Experimental: i) applying Fura-2 to stimulate to L1.2/CCR7 cell (1×10^6 cells/ml) with secondary lymphoid tissue chemokine in the presence or absence of the therapeutic or prophylactic agent (100 μg/ml) of the present invention, and
ii) measuring a fluorescent rate to monitor an intracellular calcium concentration according to the description of Hirose, J. et al. [J. Biol. Chem., 276, 5228-5234 (2001); all teachings of which are hereby incorporated by reference].
L1.2/CCR7 cells (1×10^6 cells/ml) were loaded with Fura-2, and then stimulated with secondary lymphoid tissue chemokine (“SLC” in FIG. 8) or C-terminal truncated secondary lymphoid tissue chemokine (“SLC-T” in FIG. 8), in the presence or absence of glycosaminoglycan (100 μg/ml). The intracellular calcium concentration was monitored by measuring a fluorescent rate in the same manner as described in the previous report [Hirose, J. et al., J. Biol. Chem., 276, 5228-5234 (2001)]. Chondroitin sulfate E (“CS E” in FIG. 8) and chondoroitin sulfate A (“CS A” in FIG. 8) were used as the glycosaminoglycan. In FIG. 8, an arrowhead indicates a time point at which stimulation was given.

chondroitin polysulfate [CPS]
inhibition of binding between biotinylated versican and secondary lymphoid tissue chemokine [1]: inhibited | Kd [2]: 86.3 nM | koff [2]: 0.00304 s⁻¹ | kon [2]: 35200 M⁻¹ s⁻¹ | inhibition of binding between biotinylated versican and P-selectin [3]: inhibited | Kd [4]: 47.7 nM | koff [4]: 0.000366 s⁻¹ | kon [4]: 7680 M⁻¹ s⁻¹ | Ca^2+ mobilization by secondary lymphoid tissue chemokine pre-incubated with glycosaminoglycan [5]: did not induce

chondroitin sulfate A [CS A]
interaction with immobilized glycosaminoglycan (sensorgram) [2]: did not interact | interaction with immobilized glycosaminoglycan (sensorgram) [4]: did not interact | Ca^2+ mobilization by secondary lymphoid tissue chemokine pre-incubated with glycosaminoglycan [5]: remarkably induced

chondroitin sulfate E [CS E]
inhibition of binding between biotinylated versican and secondary lymphoid tissue chemokine [1]: inhibited | interaction with immobilized glycosaminoglycan (sensorgram) [2]: bound | Kd [2]: 293 nM | koff [2]: 0.0053 s⁻¹ | kon [2]: 18100 M⁻¹ s⁻¹ | inhibition of binding between biotinylated versican and P-selectin [3]: inhibited | Kd [4]: 21.2 nM | koff [4]: 0.000439 s⁻¹ | kon [4]: 20700 M⁻¹ s⁻¹ | interaction with immobilized glycosaminoglycan (sensorgram) [4]: bound | Ca^2+ mobilization by secondary lymphoid tissue chemokine pre-incubated with glycosaminoglycan [5]: did not induce

dermatan polysulfate [DPS]
inhibition of binding between biotinylated versican and secondary lymphoid tissue chemokine [1]: inhibited | inhibition of binding between biotinylated versican and P-selectin [3]: inhibited | koff [4]: 0.000289 s⁻¹ | kon [4]: 13700 M⁻¹ s⁻¹ | Ca^2+ mobilization by secondary lymphoid tissue chemokine pre-incubated with glycosaminoglycan [5]: did not induce
